Measurements: patent US20110251220A1, “Pharmaceutical compositions comprising gamma secretase modulators” (priority 2008, published 2011)

How the values were obtained:
[1] = test system: MM cells; test: Proliferation assay (CellTiter-Glo), concentration of 50% growth inhibition; format: cell-based; details: Homo sapiens; read-out: Concentration at which 50% cell growth inhibition was observed
Protocol: Human MM cell lines used were as follows: NCI-H929, OPM-2, LP-1, RPMI-8226, U266 (DSMZ, Braunschweig, Germany). Cell lines were cultured in RPMI 1640 medium (Biochrom, Berlin, Germany) supplemented with 10% heat-inactivated fetal calf serum (FCS, Gibco, Karlsruhe, Germany), 1 mM sodium pyruvate and 100 units/ml penicillin and 100 μg/ml streptomycin (Gibco). Human osteoclasts were obtained as described in the reference of Zavrski I, Krebbel H, Wildemann B, et al. Proteasome inhibitors abrogate osteoclast differentiation and osteoclast function. Biochem Biophys Res Commun. 2005; 333:200-205. Briefly, peripheral blood mononuclear cells (PBMC) were isolated from whole blood of healthy volunteers, using a Ficoll-Hypaque density gradient. The adherent fraction of the isolated mononuclear cells was cultured for 21 days in MEM medium (Sigma-Aldrich Chemie, Taufkirchen, Germany) supplemented with 10% FCS, 100 U/ml penicillin, 100 μg/ml streptomycin, 50 ng/ml M-CSF, and 25 ng/ml RANKL (osteoclastogenic medium), before coculture experiments and treatment with the inventive compounds started. Human osteoblasts were obtained according to Robey P G, Termine J D. Human bone cells in vitro. Calcif Tissue Int. 1985; 37:453-460 as described in Hecht M, Heider U, Kaiser M, von Metzler I, Sterz J, Sezer O. Osteoblasts promote migration and invasion of myeloma cells through upregulation of matrix metalloproteinases, urokinase plasminogen activator, hepatocyte growth factor and activation of p38 MAPK. Br J Haematol. 2007; 138: 446-458. Briefly, trabecular bone specimens from patients without malignant disease undergoing knee or hip surgery were minced and washed to remove bone marrow cells. The bone fragments were resuspended in Dulbecco's modified Eagle's medium (DMEM)/HAM's F12 medium (Biochrom, Berlin, Germany) supplemented with 10% FCS and cultured in tissue culture flasks until a confluent cell monolayer was obtained. Culturing of functional osteoblasts was confirmed by alkaline phosphatase (ALP) staining (kit from Sigma, USA), realtime RT-PCR analysis of expression of osteoblast markers (ALP, osteocalcin) and by von-Kossa staining before coculture and treatment experiments were started.
The compound according to example 1, hereinafter referred to as GSI15, (compound RH02015SC, Maybridge, Acros Organics, Geel, Belgium) was freshly dissolved as 26 mM stock solution in Dimethylsulfoxide (DMSO). Multiple myeloma therapeutics used were melphalan (marketed as Alkeran®, GlaxoSmithKline, Munich, Germany) and bortezomib (marketed as Velcade®, Janssen-Cilag, Neuss, Germany). Melphalan was freshly dissolved at 10 mg/ml in 0.9% NaCl-solution. Bortezomib was freshly dissolved at 100 ng/ml in 0.9% NaCl solution. Gamma Secretase Inhibitor (GSI) treatment for apoptosis assessment by AnnexinV/PI staining, cell cycle analysis and coculture experiments was performed in 6-well plates. GSI15 stock solution was added directly to the cell suspension. GSI treatment for assaying proliferation was performed in 96-well plates. 10,000 cells per well were seeded in 50 μl medium per well before 50 μl of a 2× solution of GSI15 prediluted in medium were added per well. […]
For assaying proliferation/viability of cells CellTiter-Glo Luminescent Cell Viability Assay (Promega, Mannheim, Germany) was used. In this assay the number of viable cells at a given time point is determined by quantification of ATP present, which serves as a measure of metabolically active cells. […]

[2] = test system: OBL; test: PARP cleavage in osteoblasts (OBL), mono- and coculture; format: cell-based, human; details: mono- and cocultures, high doses of GSI15
Protocol: Human MM cell lines used were as follows: NCI-H929, OPM-2, LP-1, RPMI-8226, U266 (DSMZ, Braunschweig, Germany). Cell lines were cultured in RPMI 1640 medium (Biochrom, Berlin, Germany) supplemented with 10% heat-inactivated fetal calf serum (FCS, Gibco, Karlsruhe, Germany), 1 mM sodium pyruvate and 100 units/ml penicillin and 100 μg/ml streptomycin (Gibco). Human osteoclasts were obtained as described in the reference of Zavrski I, Krebbel H, Wildemann B, et al. Proteasome inhibitors abrogate osteoclast differentiation and osteoclast function. Biochem Biophys Res Commun. 2005; 333:200-205. Briefly, peripheral blood mononuclear cells (PBMC) were isolated from whole blood of healthy volunteers, using a Ficoll-Hypaque density gradient. The adherent fraction of the isolated mononuclear cells was cultured for 21 days in MEM medium (Sigma-Aldrich Chemie, Taufkirchen, Germany) supplemented with 10% FCS, 100 U/ml penicillin, 100 μg/ml streptomycin, 50 ng/ml M-CSF, and 25 ng/ml RANKL (osteoclastogenic medium), before coculture experiments and treatment with the inventive compounds started. […]
Whole cell extracts were prepared and quantified as described in Jundt F, Anagnostopoulos I, Forster R, Mathas S, Stein H, Dorken B. Activated Notch1 signaling promotes tumor cell proliferation and survival in Hodgkin and anaplastic large cell lymphoma. […]

[3] = test system: human podocyte cell line; test: TGFβ-induced apoptosis in human podocyte cell line (Cell Death Detection ELISA); format: cell-based
Protocol: The percentage of the apoptotic cells was determined after 24 hours using the Cell Death Detection ELISA (Roche Diagnostics, Mannheim, Germany) according to the manufaturer's protocol.

[4] = test system: male Sprague-Dawley rats; test: PAN-model of albuminuric glomerular disease; format: in vivo, rat; details: day 7, 500 μg/100 g rat i.p. once per day, compared to PAN alone
Protocol: For the in vivo studies male Sprague-Dawley rats were purchased from Charles River and treated with puromycin aminoglycoside (PAN) to induce albuminuric glomerular disease as described previously (Niranjan et al., “The Notch pathway in podocytes plays a role in the development of glomerular disease.” Nat. Med. 14: 290-298, 2008). Rats were injected PAN (150 mg/kg) once. The test compounds were administered intraperitoneally (500 μg/100 g rat) once per day (n=4 animals per group). Injection of test compounds were started one day after PAN injection. All studies were performed in accordance with the European Union normative. As a positive control one group of rats received gamma secretase inhibitor DAPT.
Urinary albumine was measured at the indicated days as described previously (Sanchez-Nino et al., “The MIF receptor CD74 in diabetic podocyte injury”. J. Am. Soc. Nephrol. 20: 353-362, 2009). For total protein measurement urine samples were centrifuged and pellets were diluted in distilled water. Exton reagent (230 mM sulfosalic acid, 1.4 M sodium sulfate) was added and after 10 minutes absorbance was measured at 620 nm.

With `CC(C)c1ccc(S(=O)(=O)Nc2cccnc2Oc2ccc(Cl)cc2)cc1` [Example 1, N-(2-(4-chlorophenoxy)pyridin-3-yl)-4-isopropylbenzenesulfonamide] the IC50 [1] was 20 µM, the “PARP cleavage (apoptosis)” value [2] was “Neither in OBL nor in MSC apoptosis was induced” and the “effect in podocyte cell culture experiments” value [3] was “positive effect”. The inhibition at 0.5 µM ([3]; Homo sapiens, 500 nM, compared to TGFβ alone, 24 hours) was 41%, the inhibition of albuminuria [4] was 56% and the inhibition of proteinuria [4] was 50%.
